Patent publication US20260001928A1 (CORTERIA PHARMACEUTICALS, priority 2022, published 2026)
*1 amine or outer side, *2 acyl side, *3 side chain or, on linkers, in order; H or OH if unused. Where a SMILES comes first, the peptide text is derived from it. Side-chain parts run from the residue outwards. [ ]: non-standard residue; d: D form. The star is where a group is joined. C20 diacid = O=C(O)CCCCCCCCCCCCCCCCCCC(=O)*; C18 diacid = O=C(O)CCCCCCCCCCCCCCCCC(=O)*; C16 diacid = O=C(O)CCCCCCCCCCCCCCC(=O)*; γGlu = O=C(O)[C@H](CCC(=O)[*:2])N[*:1]; αMeK = C[C@](N)(CCCCN)C(=O)O; Abu = CC[C@H](N)C(=O)O; AEEA = NCCOCCOCC(=O)O; Aib = CC(C)(N)C(=O)O

Tests used:
[1] = target: T1, CFR1R receptor (Homo sapiens, UniProt P34998); experiment: Activity at anti-target CFR1R receptor, cAMP assay in CRF1R-overexpression CHO-K1 cells; format: cell-based; conditions: 100% = Sauvagine at 100 nM; for EC50: cAMP
T1 construct: host or cells: CHO-K1 (clone 2)
T1 sequence (P34998 24-415): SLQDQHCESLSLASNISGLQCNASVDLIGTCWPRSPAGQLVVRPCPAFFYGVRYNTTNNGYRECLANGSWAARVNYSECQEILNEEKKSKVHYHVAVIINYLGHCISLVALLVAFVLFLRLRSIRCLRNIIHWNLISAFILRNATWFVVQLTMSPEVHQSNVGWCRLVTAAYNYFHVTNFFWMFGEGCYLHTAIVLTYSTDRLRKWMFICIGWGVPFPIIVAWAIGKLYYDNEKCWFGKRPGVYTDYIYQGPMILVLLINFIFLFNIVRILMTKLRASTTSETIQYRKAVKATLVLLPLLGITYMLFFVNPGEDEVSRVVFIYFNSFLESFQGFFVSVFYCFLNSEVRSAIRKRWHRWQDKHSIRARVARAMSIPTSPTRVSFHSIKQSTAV
In short: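 Grow clone 2 to near confluence at 37° C. under 5% CO2 in F12 (Hams) with 10% FBS and G418, harvest, and freeze in 10% DMSO. Thaw and plate at 4000 cells/well. Then proceed per the TeloHAEC method, normalising to Sauvagine 100 nM as maximum.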

[2] = target: T2, human CRF2a receptor (Homo sapiens, UniProt Q13324); experiment: Activity at human CRF2a receptor, cAMP functional assay in TeloHEAC cells; format: cell-based; conditions: TeloHEAC cells stably expressing human CRF2a receptor, relative to urocortin 2 (100 nM = 100%)
T2 construct: expressed in transfected cells; host or cells: TeloHEAC cells
T2 sequence (Q13324 1-411): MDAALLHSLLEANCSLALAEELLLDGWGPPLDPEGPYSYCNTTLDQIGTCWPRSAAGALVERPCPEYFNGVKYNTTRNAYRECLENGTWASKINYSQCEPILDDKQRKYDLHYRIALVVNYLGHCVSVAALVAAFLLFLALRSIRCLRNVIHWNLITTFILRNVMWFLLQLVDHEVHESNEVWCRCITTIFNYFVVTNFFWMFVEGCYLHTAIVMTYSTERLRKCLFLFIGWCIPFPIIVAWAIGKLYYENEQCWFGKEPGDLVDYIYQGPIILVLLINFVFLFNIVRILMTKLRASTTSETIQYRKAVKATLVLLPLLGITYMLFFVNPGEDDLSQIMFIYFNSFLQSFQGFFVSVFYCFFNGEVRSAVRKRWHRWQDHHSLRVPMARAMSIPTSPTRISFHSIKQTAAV
In short: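 TeloHEAC cells stably expressing human CRF2a (10000 cells/well, suspended in HBSS/20 mM HEPES with 2 mM IBMX) were exposed to compounds for 30 min at 37 °C. cAMP was read as the 665/620 nm fluorescence ratio after 1 h at room temperature. EC50 was derived relative to 100 nM urocortin 2, set as 100%.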

[3] = Chemical stability in buffer (pH 7.4 / pH 4.5), % purity loss; format: physicochemical; conditions: 40° C. vs 5° C., 14 or 28 days; for Buffer stability pH 4.5 % purity loss: 100 mM acetate buffer pH 4.5; for Buffer stability pH 7.4 % purity loss: 100 mM phosphate buffer pH 7.4
Description: Solubility and chemical stability were studied in 100 mM phosphate buffer (pH 7.4) and 100 mM acetate buffer (pH 4.5). Test compound powders were dissolved in both buffers at a target concentration of 10 mg/mL and incubated for 1 hour at room temperature. After centrifugation at 2500 rcf for 15 minutes, 10 μL of supernatant was diluted with 190 μL of the incubation buffer and analyzed by LC-UV (Acquity UPLC-DAD, Waters). Solubility was calculated by comparing the peak area of the test compound in the buffer sample with the peak area of the same compound dissolved at 0.5 mg/mL in water:acetonitrile 1:1, 0.1% formic acid.
From the centrifuged supernatant, two additional 80 μL aliquots were collected and diluted with 160 μL of incubation buffer. One aliquot was stored at 5° C., while the other was stored at 40° C. After 14 or 28 days, the samples were analyzed by LC-UV. Chemical stability was calculated as % loss using the following equations: […]

[4] = tested on: Sprague Dawley rats; experiment: Effect on systolic blood pressure, telemetry in Sprague Dawley rats; format: in vivo, rat; conditions: 0.1 mg/kg SC
Description: The effect of the compounds on systolic blood pressure was determined in telemetry studies in Sprague Dawley rats at a dosage of 0.1 mg/kg SC.
The rats were previously implanted with a telemetry device (DSI, Saint-Paul, USA, HD-S10, HD-S11 or HD S21) and allowed to recover for a minimum period of 2 weeks before treatment with vehicle or the different peptides. Blood pressure (BP) was recorded through a catheter inserted into the abdominal aorta. The device body was placed in the abdomen. The animals were allowed to recover from surgery for at least 10 days before the first administration of test drug or vehicle.
The chronically instrumented rats of the telemetry studies were individually housed immediately after surgery and then housed in pairs with a non-instrumented companion after recovery.
Systolic blood pressure was recorded for one hour before treatment (basal period). Thereafter, the subcutaneous administration of the test compound or its vehicle was performed, under continuous recording of the signal up to 48 hours, analysed and expressed as % change from baseline.
Representative data are presented in Table 13 below, in which “Duration of action” indicates the last time point for which an effect on BP was still observed (n=2 animals/peptide)

SMILES | Emax (% I) [1] [% I] | EC50 [1] [nM] | EC50 [2] [nM] | Buffer stability pH 4.5 % purity loss [3] | Buffer stability pH 7.4 % purity loss [3] | Systolic blood pressure (Mean) % change from baseline, 8 h ([4]; 8 h, n=2) [%] | Systolic blood pressure (Mean) % change from baseline, 12 h ([4]; 12 h, n=2) [%] | Systolic blood pressure (Mean) % change from baseline, 24 h ([4]; 24 h, n=2) [%] | Duration of action ([4]; last time point with an effect on BP still observed) [h]
CC[C@H](C)[C@H](NC(=O)[C@H](CCC(N)=O)NC(=O)[C@H](CCCCN)NC(=O)[C@H](CC(N)=O)NC(=O)[C@@H](NC(=O)[C@H](CCC(=O)O)NC(=O)[C@H](C)NC(=O)[C@H](CCC(N)=O)NC(=O)[C@H](CCC(=O)O)NC(=O)[C@H](CCCNC(=N)N)NC(=O)[C@H](CCC(N)=O)NC(=O)[C@H](CCCCN)NC(=O)[C@H](CCCCN)NC(=O)[C@H](CCC(N)=O)NC(=O)[C@H](CCCCN)NC(=O)[C@H](CCC(=O)O)NC(=O)[C@H](CCC(N)=O)NC(=O)[C@H](CCC(=O)O)NC(=O)[C@H](CC(C)C)NC(=O)[C@H](CC(C)C)NC(=O)[C@@H](NC(=O)[C@H](CCCCN)NC(=O)[C@H](CCCCNC(=O)COCCOCCNC(=O)COCCOCCNC(=O)CC[C@H](NC(=O)CCCCCCCCCCCCCCCCC(=O)O)C(=O)O)NC(=O)[C@H](CC(C)C)NC(=O)[C@H](CCCCN)NC(=O)[C@@H](NC(=O)[C@@H]1CCCN1C(=O)[C@H](NC(=O)[C@H](CC(=O)O)NC(=O)[C@H](CC(C)C)NC(=O)[C@H](CO)NC(=O)[C@H](CC(C)C)NC(=O)[C@@H](N)C(C)C)C(C)C)[C@@H](C)CC)[C@@H](C)CC)[C@@H](C)O)C(=O)N[C@@H](CC(C)C)C(=O)N[C@@H](C)C(=O)N[C@@H](CCC(N)=O)C(=O)N[C@H](C(N)=O)C(C)C [compound 93] (H-VLSLD[dV]PIKLK([AEEA-AEEA-γGlu-C18 diacid])KILLEQEKQKKQREQAETNKQILAQV-NH2) | 6 | > 250 | 5.08 | 0% | 19% |  |  |  | 
CC[C@H](NC(=O)[C@H](CC(N)=O)NC(=O)[C@@H](NC(=O)[C@H](CCC(=O)O)NC(=O)[C@H](C)NC(=O)[C@H](CCC(N)=O)NC(=O)[C@H](CCC(=O)O)NC(=O)[C@H](CCCNC(=N)N)NC(=O)[C@H](CCC(N)=O)NC(=O)[C@H](CCCCN)NC(=O)[C@H](CCCCN)NC(=O)[C@H](CCC(N)=O)NC(=O)[C@H](CCCCN)NC(=O)[C@H](CCC(=O)O)NC(=O)[C@H](CCC(N)=O)NC(=O)[C@H](CCC(=O)O)NC(=O)[C@H](CC(C)C)NC(=O)[C@H](CC(C)C)NC(=O)[C@@H](NC(=O)[C@H](CCCCN)NC(=O)[C@H](CCCCNC(=O)COCCOCCNC(=O)COCCOCCNC(=O)CC[C@H](NC(=O)CCCCCCCCCCCCCCCCC(=O)O)C(=O)O)NC(=O)[C@H](CC(C)C)NC(=O)[C@H](CCCCN)NC(=O)[C@@H](NC(=O)[C@@H]1CCCN1C(=O)[C@H](NC(=O)[C@H](CC(=O)O)NC(=O)[C@H](CC(C)C)NC(=O)[C@H](CO)NC(=O)[C@H](CC(C)C)NC(=O)[C@@H](NC(=O)[C@@H](NC(C)=O)[C@@H](C)CC)C(C)C)C(C)C)[C@@H](C)CC)[C@@H](C)CC)[C@@H](C)O)C(=O)N[C@@H](CCC(N)=O)C(=O)N[C@H](C(=O)N[C@@H](CC(C)C)C(=O)N[C@@H](C)C(=O)N[C@@H](CCC(N)=O)C(=O)N[C@H](C(N)=O)C(C)C)[C@@H](C)CC [compound 104] (Ac-IVLSLD[dV]PIKLK([AEEA-AEEA-γGlu-C18 diacid])KILLEQEKQKKQREQAETN[Abu]QILAQV-NH2) | 5 | > 250 | 0.47 | 0/0 ^ % | 0/0 ^ % |  |  |  | 
CC[C@H](C)[C@H](NC(C)=O)C(=O)N[C@H](C(=O)N[C@@H](CC(C)C)C(=O)N[C@@H](CO)C(=O)N[C@@H](CC(C)C)C(=O)N[C@@H](CC(=O)O)C(=O)N[C@@H](C(=O)N1CCC[C@H]1C(=O)N[C@H](C(=O)N[C@@H](CCCCN)C(=O)N[C@@H](CC(C)C)C(=O)N[C@@H](CCCCNC(=O)CC[C@H](NC(=O)CCCCCCCCCCCCCCC(=O)O)C(=O)O)C(=O)N[C@@H](CCCCN)C(=O)N[C@H](C(=O)N[C@@H](CC(C)C)C(=O)N[C@@H](CC(C)C)C(=O)N[C@@H](CCC(=O)O)C(=O)N[C@@H](CCC(N)=O)C(=O)N[C@@H](CCC(=O)O)C(=O)N[C@@H](CCCCN)C(=O)N[C@@H](CCC(N)=O)C(=O)N[C@@H](CCCCN)C(=O)N[C@@H](CCCCN)C(=O)N[C@@H](CCC(N)=O)C(=O)N[C@@H](CCCNC(=N)N)C(=O)N[C@@H](CCC(=O)O)C(=O)N[C@@H](CCC(N)=O)C(=O)N[C@@H](C)C(=O)N[C@@H](CCC(=O)O)C(=O)N[C@H](C(=O)N[C@@H](CC(N)=O)C(=O)N[C@@](C)(CCCCN)C(=O)N[C@@H](CCC(N)=O)C(=O)N[C@H](C(=O)N[C@@H](CC(C)C)C(=O)N[C@@H](C)C(=O)N[C@@H](CCC(N)=O)C(=O)N[C@H](C(N)=O)C(C)C)[C@@H](C)CC)[C@@H](C)O)[C@@H](C)CC)[C@@H](C)CC)C(C)C)C(C)C [compound 54] (Ac-IVLSLD[dV]PIKLK([γGlu-C16 diacid])KILLEQEKQKKQREQAETN[αMeK]QILAQV-NH2) | 20 | > 250 | 0.12 | nd/0 ^ % |  |  |  |  | 
CC[C@H](C)[C@H](NC(C)=O)C(=O)N[C@H](C(=O)N[C@@H](CC(C)C)C(=O)N[C@@H](CO)C(=O)N[C@@H](CC(C)C)C(=O)N[C@@H](CC(=O)O)C(=O)N[C@@H](C(=O)N1CCC[C@H]1C(=O)N[C@H](C(=O)N[C@@H](CCCCN)C(=O)N[C@@H](CC(C)C)C(=O)N[C@@H](CCCCNC(=O)CC[C@H](NC(=O)CCCCCCCCCCCCCCCCCCC(=O)O)C(=O)O)C(=O)N[C@@H](CCCCN)C(=O)N[C@H](C(=O)N[C@@H](CC(C)C)C(=O)N[C@@H](CC(C)C)C(=O)N[C@@H](CCC(=O)O)C(=O)N[C@@H](CCC(N)=O)C(=O)N[C@@H](CCC(=O)O)C(=O)N[C@@H](CCCCN)C(=O)N[C@@H](CCC(N)=O)C(=O)N[C@@H](CCCCN)C(=O)NC(C)(C)C(=O)N[C@@H](CCC(N)=O)C(=O)N[C@@H](CCCNC(=N)N)C(=O)N[C@@H](CCC(=O)O)C(=O)N[C@@H](CCC(N)=O)C(=O)N[C@@H](C)C(=O)N[C@@H](CCC(=O)O)C(=O)N[C@H](C(=O)N[C@@H](CC(N)=O)C(=O)NC(C)(C)C(=O)N[C@@H](CCC(N)=O)C(=O)N[C@H](C(=O)N[C@@H](CC(C)C)C(=O)N[C@@H](C)C(=O)N[C@@H](CCC(N)=O)C(=O)N[C@H](C(N)=O)C(C)C)[C@@H](C)CC)[C@@H](C)O)[C@@H](C)CC)[C@@H](C)CC)C(C)C)C(C)C [compound 209] (Ac-IVLSLD[dV]PIKLK([γGlu-C20 diacid])KILLEQEKQK[Aib]QREQAETN[Aib]QILAQV-NH2) | 21 | > 250 | 0.22 |  |  | −18 | −11 | 3 | 23
